In publication PMC12381739, “Druglike Molecular Degraders of the Oncogenic RNA-Binding Protein HuR” (JACS Au, 2025):

Experiments:
[1] = system: Bcl2 and FOXQ1 mRNA; assay: mRNA RT-qPCR of Bcl2 and FOXQ1 in MCF-7 cells; format: cell-based, human
Experimental: MCF-7 cells were seeded into 12-well plates (∼150,000 cells per well) at 60–70% confluency incubated for 12 h. The cells were then treated with different synthesized compounds at the indicated concentrations or with vehicle control for 24 and 48 h. After treatment, total RNA was extracted using the QuickRNA Miniprep Kit (Zymo Research) according to the manufacturer’s protocol, including DNase I treatment. Reverse transcription was performed on 1 μg of total RNA using the qScript cDNA Synthesis Kit (Quantabio) following the manufacturer’s instructions. Approximately 30 ng of cDNA were used for each qPCR reaction, which was carried out using the Luna Universal qPCR Master Mix (New England BioLabs, cat# E3010G) on a CFX Opus 384 Real-Time PCR System. Relative expression levels of Bcl-2 and FOXQ1 were calculated by normalizing to GAPDH expression using the ΔΔCt method.

[2] = system: MCF-7 and MDA-MB-231 cells; assay: Cell counting-proliferation assay; format: cell-based, human; conditions: compared to Binders 1 and 2, at 24 and 48 h
Experimental: MCF-7 and MDA-MB-231 cells were seeded in 96-well plates to 80% confluency and treated with synthesized compounds at eight concentrations (0.1 nM–100 μM) for 24 and 48 h. Cell proliferation was assessed using the Resazurin Assay Kit (Abcam, ab228554), where each sample was incubated with 1× WST-8/CCK8 solution for 1 h. After incubation, fluorescence was measured by absorbance at 460 nm using the Synergy H1 Hybrid Multi-Mode Microplate Reader (Biotek, Agilent). Cell proliferation was calculated as the percent decrease in fluorescence of treated cells compared to untreated controls. All experiments were performed in triplicate.

[3] = system: MCF-7 cells; assay: Caspase-Glo 3/7 apoptosis assay; format: cell-based, human; conditions: MCF-7, 10 nM
Description: To elucidate the decrease in cell viability observed, we evaluated the potential increase in apoptosis using the […] Caspase-Glo 3/7 assay system. Upon cell lysis, active caspases cleave a luminogenic substrate, releasing aminoluciferin, which is subsequently converted to light by luciferase. The intensity of the signal directly correlates with the levels of apoptosis. […] This destabilization reduces the levels of proteins essential for cancer cell survival, resulting in cumulative cellular stress, diminished proliferation, and enhanced cytotoxicity. […] This enhanced effect is likely due to the catalytic nature of the molecular glue degraders, offering promising potential for cancer treatment.
MCF-7 cells were seeded in 96-well plates to 80% confluency and treated with synthesized compounds at four concentrations (1 nM–1 μM) for 24 and 48 h. Cell apoptosis was analyzed using the Caspase-Glo 3/7 Assay System (Promega, G8090). Each sample was incubated with Caspase-Glo 3/7 solution for 1 h, followed by luminescence measurement. Luminescence was measured […] using the Synergy H1 Hybrid Multi-Mode Microplate Reader (Biotek, Agilent). Cell apoptosis was calculated as the percent increase in luminescence of treated cells compared to untreated controls. All experiments were performed in triplicate.

[4] = molecular target: T1, HuR (Homo sapiens, UniProt Q15717); assay: Proteasome inhibitor (bortezomib, MG132) mechanistic validation of HuR degradation in MCF-7 cells; format: cell-based; parameters: endogenous in cells; host or cells: MCF-7; conditions: MCF-7, with bortezomib or MG132
Experimental: MCF-7 cells were seeded in 6-well plates at approximately 60% confluency and incubated for 12 h. The cells were then treated with 1 μM of the proteasome inhibitors Bortezomib (Thermo Fisher Scientific, CAS: 179324-69-7) and MG132 (Aaron Chemicals, CAS: 1211877-36-9). After treatment, the synthesized compounds were added at a concentration of 10 μM, and the cells were incubated for 5 h.

[5] = molecular target: T1, HuR; assay: HuR western blot, dose-dependent treatment (Figure S7, cell line not stated); format: cell-based; parameters: endogenous in cells; host or cells: MCF-7 or MDA-MB-231 (not given); conditions: 48 h, normalized to vinculin
Experimental: MDA-MB-231 and MCF-7 cells were seeded in 6-well plates at approximately 60% confluency in complete growth medium and treated with synthesized compounds at the indicated concentrations or with vehicle for 24 h. Total protein was extracted using RIPA cell lysis buffer (BioPrep) containing a protease inhibitor, and protein concentration was measured using the BCA protein assay (Sigma-Aldrich) according to the manufacturer’s protocol. Approximately 30 μg of total protein were resolved on a 12% SDS-acrylamide gel and transferred to a PVDF membrane (Immobilon FL transfer membrane; Merck). The membrane was washed with 1× Tris-buffered saline (TBS) containing 0.1% (v/v) Tween-20 (TBST; Tris-base, pH 7.6, NaCl, and Tween-20) and blocked in 1× TBST containing 5% (w/v) BSA for 2 h at room temperature. The membrane was then incubated overnight at 4 °C with primary antibodies: a 1:1000 dilution of rabbit anti-ELAVL1/HuR (Cell Signaling Technology, #12582), a 1:1000 dilution of mouse anti-Bcl2 (Cell Signaling Technology, #15071), or a 1:10,000 dilution of rabbit anti-Vinculin (Cell Signaling Technology, #13901) in 1× TBST containing 5% (w/v) BSA. […] The fold change in the expression of the target proteins (HuR or Bcl2) was calculated by normalizing the band intensity to the Vinculin band intensity using ImageJ. […]

T1 sequence (Q15717 whole entry): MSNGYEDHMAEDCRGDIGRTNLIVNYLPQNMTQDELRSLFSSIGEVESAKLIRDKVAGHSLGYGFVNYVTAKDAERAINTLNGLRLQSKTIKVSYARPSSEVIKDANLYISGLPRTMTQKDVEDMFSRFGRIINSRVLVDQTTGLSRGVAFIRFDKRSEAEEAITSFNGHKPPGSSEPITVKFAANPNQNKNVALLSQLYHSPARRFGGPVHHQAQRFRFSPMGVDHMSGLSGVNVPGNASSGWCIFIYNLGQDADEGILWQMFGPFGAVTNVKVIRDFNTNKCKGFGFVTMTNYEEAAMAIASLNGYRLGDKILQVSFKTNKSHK

degrader activity under 26S proteasome inhibition [4]: completely impaired | HuR protein level relative to UT ([5]; 0.01 nM): 113% | HuR protein level relative to UT ([5]; 0.1 nM): 108%
Compound: O=C1CCC(N2C(=O)c3cccc(NCc4cn(-c5ccc6sc(C(=O)O)cc6c5)nn4)c3C2=O)C(=O)N1 (stereo not shown) [PRO-HuR3]
Bcl2 mRNA expression relative to lower concentrations ([1]; MCF-7, 1 μM): increase in Bcl2 expression | Bcl2 and FOXQ1 mRNA expression ([1]; MCF-7, concentrations ranging from 1 nM to 100 nM): decrease in the expression of both genes | cell proliferation [2]: significant decrease in cell proliferation | apoptosis (caspase 3/7) [3]: significant increase in apoptosis
